Experimental data: patent publication US6417399B1, “Amelioration of neurological disorders by the administration of (2R),(3S), and/or (2S),3(S) stereoisomers of valnoctamide” (Yissum Research Development Company of the Hebrew …, priority 1997, dated 2002)
Several values for one entry are separate records, joined by “and”; a condition that tells them apart may be missing. Identical values can stand only once.

Experiments:
epoxide hydrolase = target: T1, epoxide hydrolase (Homo sapiens, UniProt P07099); settings: racemic VCD; cited from earlier work
T1 construct: decreased clearance of CBZ-E in patients; host or cells: patients in vivo (endogenous enzyme)
T1 sequence (P07099 1-455): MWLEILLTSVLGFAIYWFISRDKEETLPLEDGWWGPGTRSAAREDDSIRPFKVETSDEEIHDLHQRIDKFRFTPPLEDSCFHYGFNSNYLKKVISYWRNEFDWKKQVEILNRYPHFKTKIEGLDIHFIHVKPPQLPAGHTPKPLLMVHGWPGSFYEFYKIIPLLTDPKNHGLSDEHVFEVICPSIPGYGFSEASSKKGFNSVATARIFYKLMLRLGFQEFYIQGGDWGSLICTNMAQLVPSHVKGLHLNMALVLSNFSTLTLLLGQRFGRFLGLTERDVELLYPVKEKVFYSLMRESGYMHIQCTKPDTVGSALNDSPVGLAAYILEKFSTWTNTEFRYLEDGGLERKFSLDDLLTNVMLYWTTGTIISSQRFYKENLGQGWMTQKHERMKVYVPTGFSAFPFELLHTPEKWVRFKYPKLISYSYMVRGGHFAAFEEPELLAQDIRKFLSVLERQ

[1] = animal models; cited from earlier work
[2] = in vivo; cited from earlier work
[3] = Pharmacokinetics of VCD stereoisomers in plasma after single oral dose of racemic valnoctamide to healthy subjects; assay type: in vivo, human
Method: Healthy Subjects Seven healthy male volunteers, aged 20-31 years, weighing 61 to 85 kg, received 2×200 mg valnoctamide tablets (Nirvanil@) at 08:00 hours after an overnight fast. Venous blood samples were taken through an indwelling catheter 0, 0.5, 1, 2, 3, 4, 5, 6, 8, 10, 12 and 24 hours after dosing. Food was witheld for 4 hours after dosing.
(§1) Plasma Handling and Analytical Assays Plasma samples were separated immediately by centrifugation at 2,000 g for 10 minutes and stored at −20° C. until assaying (VCD is stable at −20° C.). The VCD plasma samples were analyzed by a gas chromatograph (HP 5890 series II)-mass spectrometer (HP 5989A)-GC-MS data system equipped with chiral capillary column. The mass spectrometer was operated in E1 mode at 70eV, the source temperature of the MS was maintained at 200° C. and the quadruple at 100° C. Mass units and their relative abundance were calibrated with perfluorotributylamine (PFTBA). Spectra were collected in the range of […], and the chiral analysis started 18 minutes after injection. Gas chromatograph (GC) oven temperature programming conditions were as follows: 50° C. for 1 minute, then increasing at a rate of 8° C./minute until 100° C., holding for a minute then 4° C./minute until reaching a final temperature of 250° C. The injector temperature is 240° C. and the GC-MS transfer line temperature is 250° C. Inlet pressure is 5 psi with a linear flow rate 20 cm/second. Helium was used as the carrier gas. Chromatographic resolution of the VCD stereoisomers was accomplished by a direct separation on a chiral stationary phase (CSP) column. The CSP consisted of a Chirasil-γ-Dex (octakis (3-O-butanoyl-2,6-di-o-pentyl)-γ-cyclodextrin chemically linked via a 6-mono-octamethylene spacer to a dimethylpolysiloxane. The 0.25 μm Chirasil-γ-Dex was coated on a 25 m×250 μm (id) fused silica capillary column. This CSP of a cyclodextin derivative allows complete baseline resolution of the four stereoisomers (α=1.04, Rs=2.0-2.4) in 24 minutes as depicted in FIG. 2. Intra and inter-day variability in the retention times of the four VCD stereoisomers was less than 10%. A calibration curve was established by spiking drug-free plasma samples with known amounts of racemic VCD at a concentration range of 0.2 mg/L to 8 mg/L (or 0.05 mg/L to 2 mg/L of each of the four VCD stereoisomers).
(§2) Pharmacokinetic and Statistical Analysis Pharmacokinetic parameters were calculated by noncompartmental analysis according to statistical moment theory. Peak plasma concentrations (Cmax) and peak times (tmax) were derived directly from the measured values. The linear terminal slopes (λ) of the log-concentration of each VCD stereoisomer versus time curves were calculated by the peeling procedure. Half life (t½) values were calculated as 0.693/λ. Areas under the plasma concentration versus time curve (AUC), after single dosing, were calculated by the trapezoidal rule with extrapolation to infinity by dividing the last measured concentration by the terminal slope. During repeated administration AUC was calculated over the last two dosing intervals by using the trapezoidal rule. Mean residence time (MRT) was calculated after single dosing as AUMC/AUC, in which AUMC is the area under the concentration×time product versus time curve from zero to infinity. Following single dosing, oral clearance (CL/F, in which F is the oral availability) and apparent volume of distribution at steady state (Vss/F) were calculated as Dose/AUC and as MRT×CL/F, respectively. Following repeated dosing, CL/F was calculated from the quotient of the dose (200 mg) and the AUC obtained during one dosing interval (defined as one-half of the AUC calculated over two consecutive dosing intervals). Comparison of the pharmacokinetic parameters of all four VCD stereoisomers was made by ANOVA.

[4] = Pharmacokinetics of VCD stereoisomers in plasma after single oral dose of racemic valnoctamide to epileptic patients; assay type: in vivo, human; settings: for CL/F / Cmax / MRT / tmax / t½: single oral 400 mg racemic VCD
Method: (§3) Patients Six epileptic patients (four men and two women aged 23-35 years, with a body weight of 56-85 kg) were studied. All had been receiving a constant carbamazepine dose (800-1200 mg/day) for at least three months. One patient was also receiving phenytoin (250 mg/day) and a second patient phenobarbital (150 mg/day). Each patient received add-on VCD for eight consecutive days at a dosage of 400 mg on day 1 (single dose day), followed by 200 mg three times daily (tid) for seven days. On the last day, only the morning and the midday doses were administered. Blood samples for plasma VCD levels were collected at 0, 0.25, 0.5, 1, 1.5, 2, 3, 4, 5, 6, 8, 10, 12 and 24 hours after the first and the last morning dose. Additional samples were taken at times 0, 0.5, 1, and 2 hours after the morning dose on the last treatment day.
as §1
as §2, with “Following repeated dosing, CL/F was calculated from the quotient of the dose (200 mg) and the AUC obtained during one dosing interval (defined as one-half of the AUC calculated over two consecutive dosing intervals). Comparison of the pharmacokinetic parameters of all four VCD stereoisomers was made by ANOVA.” left out

[5] = Pharmacokinetics of VCD stereoisomers in plasma after repeated oral dosing of racemic valnoctamide to epileptic patients; assay type: in vivo, human; settings: repeated oral racemic VCD 200 mg tid, last day
Method: as §3, §1
as §2, with “Following repeated dosing, CL/F was calculated from the quotient of the dose (200 mg) and the AUC obtained during one dosing interval (defined as one-half of the AUC calculated over two consecutive dosing intervals). Comparison of the pharmacokinetic parameters of all four VCD stereoisomers was made by ANOVA.” left out

[6] = in animals; cited from earlier work
[7] = Mean ± SD of seven healthy subjects, single oral 400 mg racemic VCD
[8] = individual healthy subjects, single oral 400 mg racemic VCD
[9] = Mean ± SD of six epileptic patients
[10] = individual epileptic patients on carbamazepine

CCC(C)C(CC)C(N)=O (racemic) [VCD, 2-ethyl-3-methyl pentanamide]
inhibition of the enzyme epoxide hydrolase (epoxide hydrolase): inhibitor of the enzyme epoxide hydrolase | anticonvulsant potency relative to VPA [1]: three times more potent | half-life relative to that of VPD [2]: ten times higher

CCC(C)C(CC)C(N)=O (single isomer, unassigned; stereoisomer d) [Stereoisomer D]
CL/F [3, 7]: 4.6 ± 0.7 L/h | Cmax [3, 7]: 1.5 ± 0.2 mg/L | MRT [3, 7]: 15 ± 3 h | tmax [3, 7]: 0.7 ± 0.3 h | t½ [3, 7]: 10 ± 2 h | t½ ([3]; Mean ± SD of seven healthy subjects, single oral 400 mg racemic VCD, listed as D): approximately 10 h | CL/F [3, 8]: 4.3 L/h and 5.6 L/h and 4.8 L/h and 3.8 L/h and 5.4 L/h and 4.7 L/h and 4.1 L/h | Cmax [3, 8]: 1.5 mg/L (3×) and 1.3 mg/L and 1.6 mg/L and 1.4 mg/L and 1.8 mg/L | MRT [3, 8]: 13 h (2×) and 18 h (2×) and 12 h (2×) and 19 h | tmax [3, 8]: 1 h (3×) and 0.5 h (4×) | t½ ([3]; individual healthy subjects, single oral 400 mg racemic VCD (Nirvanil), stereoisomer in plasma): 8.7 h and 12.9 h and 8.0 h and 13.0 h and 9.5 h and 7.9 h and 13 h | CL/F [4, 9]: 46 ± 11 L/h | Cmax [4, 9]: 0.61 ± 0.11 mg/L | MRT [4, 9]: 4.7 ± 1.0 h | tmax [4, 9]: 0.83 ± 0.51 h | t½ [4, 9]: 3.3 ± 1.1 h | half lives ([4]; epileptic patients): about 3 h | CL/F [4, 10]: 60 L/h and 35 L/h and 45 L/h and 42 L/h (2×) and 30 L/h | Cmax [4, 10]: 0.51 mg/L (3×) and 0.72 mg/L (2×) and 0.69 mg/L | MRT [4, 10]: 3.3 h and 5.2 h and 4.5 h and 5.6 h and 5.4 h and 5.3 h | tmax [4, 10]: 1.5 h (2×) and 0.5 h (4×) | t½ [4, 10]: 1.2 h and 3.8 h (3×) and 2.7 h and 3.9 h | CL/F [5, 9]: 29 ± 6 L/h | Cmax [5, 9]: 0.6 ± 0.1 mg/L | tmax [5, 9]: 1.4 ± 0.3 h | t½ [5, 9]: 3.2 ± 1.4 h | CL/F ([5]; individual epileptic patients): 36 L/h and 25 L/h (3×) and 38 L/h and 24 L/h | Cmax ([5]; individual epileptic patients): 0.7 mg/L and 0.8 mg/L and 0.6 mg/L (3×) and 0.5 mg/L | tmax ([5]; individual epileptic patients): 2.0 h and 1.5 h (3×) and 1.0 h and 1.25 h | t½ ([5]; individual epileptic patients, last dosing interval): 2.1 h and 2.8 h and 5.2 h and 2.5 h and 5.3 h and 4.6 h

CCCC(CCC)C(N)=O [VPD, Valpromide]
anticonvulsant potency relative to VPA [1]: three times more potent | teratogenicity [6]: has not been found to be teratogenic
